Data: patent publication US9577283B2, “Energy storage battery” (NISSIN ELECTRIC CO., LTD., priority 2012, dated 2017)

Test: attempt to prepare 0.2 mol/L aqueous solution of Mn(II) complex (deposition of manganese compound)
Format: physicochemical
Conditions: target concentration 0.2 mol/L, metal:ligand 1:1, pH 7, with Na2SO4
Description: Accordingly, it was known that if malonic acid as a polycarboxylic acid is used instead of polyethyleneimine, it is impossible to prepare a cathode electrolyte containing a Mn(II) complex in a sufficient concentration.
Accordingly, it was known that if succinic acid as a polycarboxylic acid is used instead of polyethyleneimine, it is impossible to prepare a cathode electrolyte containing a Mn(II) complex at a sufficient concentration.
Accordingly, it was known that if ethylenediamine is used instead of polyethyleneimine, it is impossible to prepare a cathode electrolyte containing a Mn(II) complex at a sufficient concentration.
Meanwhile, the cathode electrolyte was prepared as follows. Firstly, 0.1 mol (6.0 g) of ethylenediamine was added to and dissolved in 70 ml of distilled water.

Substance: Mn(II)-malonic acid complex
- deposition of manganese compound on preparing aqueous solution: manganese compound is immediately deposited
